Assay results as given in patent publication US11130733B2, “4-OXO-alkylated tetramic acid compound, preparation method and use thereof” (BEIJING JOEKAI BIOTECH. LLC, priority 2017, dated 2021).

Legend:
[1] = tested on: Transgenic mice containing APP/PS1; test: Water maze test of spatial memory in mice; type: in vivo
Experimental: Transgenic mice containing APP/PS1 were purchased from the Jackson Laboratory of the USA. The transgenic mice were crossbred with B6/C3 background mice. Their offspring were self-bred, genotyped, and each fed in a separate cage for about 8 months. One week before the test, a prescribed dose of medicament was administered to the mice by gavage each day, and then the spatial memory of the mice was measured by water maze test. A water tank with a diameter of 1.5 meters was filled with water at a constant temperature of 25 degrees, and skim milk was added to render the water surface opaque. A transparent platform was placed in a specific quadrant of the water tank. Distant hints were provided as spatial reference. The mice were put into the water and allowed to swim until they found the platform under the surface of water. The whole process was tracked by software, and the time from launching to finding the platform, called a latent period, was recorded thereby. If a mouse could not find the platform within 60 seconds, it was manually guided to the platform and its latent period was recorded as 60 seconds. Four rounds of the above tests were carried out on each mouse every day, with a one-hour interval between every two rounds of tests for the mice to rest. The latent period of each mouse on a day was the average of the four rounds of tests on the same day.

[2] = tested on: Salmonella typhimurium TA98; test: Mini Ames experiment, strain TA98; type: cell-based
Experimental: (§1) Histidine auxotrophic strains of Salmonella typhimurium were cultured in a special medium with quite a low content of histidine. The strains were difficult to divide due to lack of nutrition. If a test compound has mutagenicity, a large number of cells will undergo reverse mutation, synthesizing histidine by themselves and developing into colonies visible to the naked eye. In view of the close relationship between mutagenicity and carcinogenesis of chemicals, this method has been widely used in screening carcinogens. Some chemicals need metabolic activation to induce mutagenicity. Mammalian microsomal enzyme S9 can be added into the test system to eliminate the influence of metabolic activation on generation of mutagenicity.
(§2) […] Mini Ames test with compound 50561

[3] = tested on: Salmonella typhimurium TA100; test: Mini Ames experiment, strain TA100; type: cell-based
Experimental: as §1, §2

[4] = tested on: CR mice; test: MTD experiment, dose gradient by gavage; type: in vivo; conditions: for Survival number: 10 mice per dose
Experimental: Mice are commonly used rodents to evaluate the toxicity of a test sample and are also an important part of early preclinical safety evaluation. In this experiment, the toxicity of compound 50561 was tested by administering a dose gradient thereof to the mice by gavage and observing its toxicity.
This experiment was designed such that for each dose centration, 10 mice were tested, including half males and half females. The males each weighed about 18-23 grams, and the females each weighed about 17-21 grams. They were randomly grouped by a simple randomization procedure. All the animals used in the experiment weighed between ±20% of the average body weight of their respective genders. If there are not enough animals in the study to meet the weight range required thereby, notify the responsible person of the project to take reasonable measures. Animals must be adapted to the laboratory for at least three days. During this period, daily cage observation was conducted once a day, and a detailed clinical observation was necessary before the experiment. Any animal with symptoms or physical abnormalities would be reported to the attending veterinarian and responsible person of the project, and excluded whenever possible. Animals suitable for experimentation will be assigned to respective experimental groups according to the random grouping method described above.
During the experiment, after administration, all animals were observed continuously for 4 hours; from the end of administration till 3 days thereafter, observations were carried out twice each day, one in the morning and the other in the afternoon; and then observation was carried out once a day. Observations included but were not limited to: skin, hair, eyes, ears, nose, mouth, chest, abdomen, external genitals, limbs, and feet. The respiratory and circulatory systems, autonomic effects (such as salivation), and nervous system (such as tremors, convulsions, stress responses, and abnormal behaviors) should be focused on. Complete anatomical examinations would be performed on all animals that had died, were dying, or planned to be euthanized. Animals found dead outside of fixed working hours could be placed in the refrigerator overnight and dissected immediately on the next working day. At the end of the experiment (14th day after administration), all animals requiring autopsy would be euthanized and autopsied.
External abnormalities in animals, such as palpable masses, should be examined in detail. The skin would be cut along the midline of the abdomen, and any subcutaneous mass would be confirmed in conjunction with the findings in the observations of animal symptoms. […] Diseased organs were removed, weighed, recoded, and kept in a fixative fluid.

[5] = TA98, With Metabolic Activation, 1.5 μg per well
[6] = TA98, With Metabolic Activation, 4 μg per well
[7] = TA98, With Metabolic Activation, 10 μg per well
[8] = TA98, With Metabolic Activation, 25 μg per well
[9] = TA98, With Metabolic Activation, 64 μg per well
[10] = TA98, With Metabolic Activation, 160 μg per well
[11] = TA98, With Metabolic Activation, 400 μg per well
[12] = TA98, With Metabolic Activation, 1000 μg per well
[13] = TA98, Without Metabolic Activation, 1.5 μg per well
[14] = TA98, Without Metabolic Activation, 4 μg per well
[15] = TA98, Without Metabolic Activation, 10 μg per well
[16] = TA98, Without Metabolic Activation, 25 μg per well
[17] = TA98, Without Metabolic Activation, 64 μg per well
[18] = TA98, Without Metabolic Activation, 160 μg per well
[19] = TA98, Without Metabolic Activation, 400 μg per well
[20] = TA98, Without Metabolic Activation, 1000 μg per well
[21] = TA100, With Metabolic Activation, 1.5 μg per well
[22] = TA100, With Metabolic Activation, 4 μg per well
[23] = TA100, With Metabolic Activation, 10 μg per well
[24] = TA100, With Metabolic Activation, 25 μg per well
[25] = TA100, With Metabolic Activation, 64 μg per well
[26] = TA100, With Metabolic Activation, 160 μg per well
[27] = TA100, With Metabolic Activation, 400 μg per well
[28] = TA100, With Metabolic Activation, 1000 μg per well
[29] = TA100, Without Metabolic Activation, 1.5 μg per well
[30] = TA100, Without Metabolic Activation, 4 μg per well
[31] = TA100, Without Metabolic Activation, 10 μg per well
[32] = TA100, Without Metabolic Activation, 25 μg per well
[33] = TA100, Without Metabolic Activation, 64 μg per well
[34] = TA100, Without Metabolic Activation, 160 μg per well
[35] = TA100, Without Metabolic Activation, 400 μg per well
[36] = TA100, Without Metabolic Activation, 1000 μg per well

## O=C1C=C(OCc2ccc(F)cc2)[C@H](Cc2ccccc2)N1 [Compound 50561]
[1]; 0.1 mg/kg by gavage, FIG. 5
  ability to rescue the spatial memory of mice: no ability to rescue the spatial memory of mice
[1]; 1 mg/kg by gavage, FIG. 5
  ability to rescue the spatial memory of mice: no ability to rescue the spatial memory of mice
[1]; 10 mg/kg by gavage, FIG. 4
  ability to rescue the spatial memory of mice: good ability to rescue the spatial memory of mice
[2]; [5]
  Mean Revertants Per Well: 8.67
  Ratio Treated/Solvent: 1.04
[2]; [6]
  Mean Revertants Per Well: 13.33
  Ratio Treated/Solvent: 1.60
[2]; [7]
  Mean Revertants Per Well: 9.33
  Ratio Treated/Solvent: 1.12
[2]; [8]
  Mean Revertants Per Well: 12.67
  Ratio Treated/Solvent: 1.52
[2]; [9]
  Mean Revertants Per Well: 12.33
  Ratio Treated/Solvent: 1.48
[2]; [10]
  Mean Revertants Per Well: 7.00
  Ratio Treated/Solvent: 0.84
[2]; [11]
  Mean Revertants Per Well: 0.00
  Ratio Treated/Solvent: 0.00
[2]; [12]
  Mean Revertants Per Well: 0.00
  Ratio Treated/Solvent: 0.00
[2]; [13]
  Mean Revertants Per Well: 9.00
  Ratio Treated/Solvent: 1.32
[2]; [14]
  Mean Revertants Per Well: 8.00
  Ratio Treated/Solvent: 1.17
[2]; [15]
  Mean Revertants Per Well: 8.00
  Ratio Treated/Solvent: 1.17
[2]; [16]
  Mean Revertants Per Well: 8.33
  Ratio Treated/Solvent: 1.22
[2]; [17]
  Mean Revertants Per Well: 7.33
  Ratio Treated/Solvent: 1.07
[2]; [18]
  Mean Revertants Per Well: 7.33
  Ratio Treated/Solvent: 1.07
[2]; [19]
  Mean Revertants Per Well: 0.00
  Ratio Treated/Solvent: 0.00
[2]; [20]
  Mean Revertants Per Well: 0.00
  Ratio Treated/Solvent: 0.00|
[2]; TA98, presence or absence of S9
  mutagenicity: no obvious mutagenicity
[3]; [21]
  Mean Revertants Per Well: 25.33
  Ratio Treated/Solvent: 0.78
[3]; [22]
  Mean Revertants Per Well: 30.33
  Ratio Treated/Solvent: 0.93
[3]; [23]
  Mean Revertants Per Well: 32.33
  Ratio Treated/Solvent: 0.99
[3]; [24]
  Mean Revertants Per Well: 28.67
  Ratio Treated/Solvent: 0.88
[3]; [25]
  Mean Revertants Per Well: 31.00
  Ratio Treated/Solvent: 0.95
[3]; [26]
  Mean Revertants Per Well: 28.33
  Ratio Treated/Solvent: 0.87
[3]; [27]
  Mean Revertants Per Well: 0.00
  Ratio Treated/Solvent: 0.00
[3]; [28]
  Mean Revertants Per Well: 0.00
  Ratio Treated/Solvent: 0.00
[3]; [29]
  Mean Revertants Per Well: 25.67
  Ratio Treated/Solvent: 1.04
[3]; [30]
  Mean Revertants Per Well: 25.33
  Ratio Treated/Solvent: 1.03
[3]; [31]
  Mean Revertants Per Well: 28.67
  Ratio Treated/Solvent: 1.16
[3]; [32]
  Mean Revertants Per Well: 19.00
  Ratio Treated/Solvent: 0.77
[3]; [33]
  Mean Revertants Per Well: 23.33
  Ratio Treated/Solvent: 0.95
[3]; [34]
  Mean Revertants Per Well: 17.33
  Ratio Treated/Solvent: 0.70
[3]; [35]
  Mean Revertants Per Well: 0.00
  Ratio Treated/Solvent: 0.00
[3]; [36]
  Mean Revertants Per Well: 0.00
  Ratio Treated/Solvent: 0.00
[3]; TA100, presence or absence of S9
  mutagenicity: no obvious mutagenicity
[4]; 250 mg/kg
  Remarks: condition of the body: in good condition.
[4]; 250 mg/kg by gavage
  Survival number: 10
[4]; 250 mg/kg, quickly recovered
  Remarks: Body weight decreased by: about 2 g, which was quickly
[4]; 500 mg/kg
  Remarks: Body weight decreased by: about 2 g; individual activity
  Remarks: condition of the body; organs of the dead individuals: in good condition. There
[4]; 500 mg/kg by gavage
  Survival number: 8
[4]; 750 mg/kg
  Remarks: organs in dead individuals: No abnormality of organs
[4]; 750 mg/kg by gavage
  Survival number: 0
[4]; 1000 mg/kg
  Remarks: organs in dead individuals: No abnormality of organs
[4]; 1000 mg/kg by gavage
  Survival number: 0
[4]; CR mice, by gavage
  maximum tolerance (MTD): < 500 mg/kg
